From the NIST ThermoML archive (doi:10.1021/je0342825)

Columns and labels:
[1] = xn = mol fraction of the nth substance listed; details: 101.3 kPa, Liquid
[2] = 101.3 kPa, Liquid

O [water] + CC(=O)O
[1], x2 = 0
Details	viscosity [mPa·s]
293.15 K	1.003
298.15 K	0.89
303.15 K	0.797

COC(C)=O [methyl ethanoate]
[2]
Details	mass density [kg/m3]	speed of sound [m/s]	viscosity [mPa·s]
293.15 K	933.56	1174	0.386
298.15 K	926.98	1151	0.367
303.15 K	920.34	1128	0.348

CC(=O)O [acetic acid] + COC(C)=O
[1], x1 = 1
Details	mass density [kg/m3]	speed of sound [m/s]	viscosity [mPa·s]
293.15 K	1049.3	1149	1.211
298.15 K	1043.65	1132	1.115
303.15 K	1038	1115	1.034

CC(=O)O [acetic acid] + O
[1]
Details	mass density, 293.15 K [kg/m3]	mass density, 298.15 K [kg/m3]	mass density, 303.15 K [kg/m3]	speed of sound, 293.15 K [m/s]	speed of sound, 298.15 K [m/s]	speed of sound, 303.15 K [m/s]	viscosity, 293.15 K [mPa·s]	viscosity, 298.15 K [mPa·s]	viscosity, 303.15 K [mPa·s]
x1 = 0.0503	1019.37	1017.24	1014.94	1528	1533	1537	1.304	1.151	1.023
x1 = 0.1009	1034.95	1032.04	1029.02	1537	1536	1535	1.578	1.385	1.226
x1 = 0.2018	1053.88	1050	1046.07	1509	1502	1494	2.031	1.777	1.571
x1 = 0.3006	1063.42	1058.83	1054.2	1465	1454	1443	2.355	2.053	1.809
x1 = 0.4015	1068.15	1063.42	1058.66	1418	1405	1392	2.559	2.232	1.965
x1 = 0.5012	1069.68	1064.77	1059.78	1373	1359	1344	2.652	2.316	2.046
x1 = 0.6005	1068.8	1063.48	1058.24	1329	1314	1299	2.627	2.3	2.029
x1 = 0.7004	1066.55	1061.22	1055.91	1286	1270	1254	2.417	2.129	1.89
x1 = 0.8017	1062.78	1057.34	1051.9	1243	1226	1210	2.077	1.85	1.656
x1 = 0.8996	1057.35	1051.8	1046.25	1199	1183	1166	1.666	1.503	1.367
x1 = 0.9523	1053.56	1047.96	1042.35	1175	1157	1140	1.416	1.294	1.19
x1 = 1	1049.3	1043.65	1038	1149	1132	1115	1.211	1.115	1.034

CCO [ethanol] + CC(=O)O
[1], x2 = 0
Details	mass density [kg/m3]	speed of sound [m/s]	viscosity [mPa·s]
293.15 K	789.75	1162	1.187
298.15 K	785.46	1145	1.082
303.15 K	781.15	1128	0.987
